Reference: patent US8404679B2, “Pyrrolidine derivatives as NK2 receptor antagonists” (Hoffmann-La Roche Inc., priority 2008, dated 2013)

The molecules below were run against T1, human NK2 receptor (Homo sapiens, UniProt P21452) (assay: [3H]SR48968 competition binding assay). Conditions: [3H]SR48968 displacement, membranes of CHO cells stably expressing recombinant human NK2 receptor; Ki from IC50 by Cheng-Prussoff.
T1 construct: purchased Perkin Elmer biosignal Inc. 6110510
T1 sequence (P21452 1-398): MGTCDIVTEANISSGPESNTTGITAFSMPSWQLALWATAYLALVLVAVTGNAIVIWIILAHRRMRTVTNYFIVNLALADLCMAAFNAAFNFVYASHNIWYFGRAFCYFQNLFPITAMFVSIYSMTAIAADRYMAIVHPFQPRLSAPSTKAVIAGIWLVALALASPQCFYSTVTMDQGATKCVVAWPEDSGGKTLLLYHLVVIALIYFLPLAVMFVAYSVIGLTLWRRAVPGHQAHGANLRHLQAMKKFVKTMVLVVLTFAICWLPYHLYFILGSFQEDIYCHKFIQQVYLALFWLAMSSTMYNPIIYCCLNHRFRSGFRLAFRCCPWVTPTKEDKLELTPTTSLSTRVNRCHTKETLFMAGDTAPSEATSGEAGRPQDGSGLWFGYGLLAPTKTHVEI
Outline: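 Membranes from CHO cells stably expressing recombinant human NK2 were incubated 75 min at RT with [3H]SR48968 at its KD and 10 compound concentrations (0.0003–10 μM) in Tris-HCl pH 7.4, MnCl2, chymostatin, BSA. Filter-bound radioactivity was counted; Hill-fitted IC50 converted to Ki via Cheng-Prusoff.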

| SMILES | Ki [nM] |
| --- | --- |
| CN(C(=O)C(C)(C)c1ccc(F)cc1)[C@H]1CN(C(=O)C2CCN(C(=O)C3(C)CC3)CC2)C[C@@H]1c1ccc(Cl)c(Cl)c1 (racemic) [Example 125, N-{(3RS,4SR)-4-(3,4-Dichloro-phenyl)-1-[1-(1-methyl-cyclopropanecarbonyl)-piperidine-4-carbonyl]-pyrrolidin-3-yl}-2-(4-fluoro-phenyl)-N-methyl-isobutyramide] | 67.9 |
| COc1ccc(C(=O)N(C)[C@H]2CN(C(=O)C3CCN(CCCSC)CC3)C[C@@H]2c2ccc(Cl)cc2)cc1C(F)(F)F (racemic) [Example 126, N-{(3RS,4SR)-4-(4-Chloro-phenyl)-1-[1-(3-methylsulfanyl-propyl)-piperidine-4-carbonyl]-pyrrolidin-3-yl}-4-methoxy-N-methyl-3-trifluoromethyl-benzamide] | 0.9 |
| COC1CCC(C(=O)N2C[C@H](c3ccc(Cl)c(Cl)c3)[C@@H](N(C)C(=O)Cc3ccc(F)cc3)C2)CC1 (mixture of isomers) [Example 127, N-[(3RS,4SR)-4-(3,4-Dichloro-phenyl)-1-(4-methoxy-cyclohexanecarbonyl)-pyrrolidin-3-yl]-2-(4-fluoro-phenyl)-N-methyl-acetamide] | 35 |
| COc1ccc(C(=O)N(C)[C@H]2CN(C(=O)C3CCN(CCCS(C)(=O)=O)CC3)C[C@@H]2c2ccc(Cl)cc2)cc1C(F)(F)F (racemic) [Example 131, N-{(3RS,4SR)-4-(4-Chloro-phenyl)-1-[1-(3-methanesulfonyl-propyl)-piperidine-4-carbonyl]-pyrrolidin-3-yl}-4-methoxy-N-methyl-3-trifluoromethyl-benzamide] | 0.1 |
| COc1ccc(C(=O)N(C)[C@H]2CN(C(=O)C3CCN(C(=O)OC(C)(C)C)CC3)C[C@@H]2c2ccc(Cl)c(Cl)c2)cc1C(F)(F)F (racemic) [Example 132, 4-{(3SR,4RS)-3-(3,4-Dichloro-phenyl)-4-[(4-methoxy-3-trifluoromethyl-benzoyl)-methyl-amino]-pyrrolidine-1-carbonyl}-piperidine-1-carboxylic acid tert-butyl ester] | 1.3 |
| COc1ccc(C(=O)N(C)[C@H]2CN(C(=O)C3CCNCC3)C[C@@H]2c2ccc(Cl)c(Cl)c2)cc1C(F)(F)F (racemic) [Example 133, N-[(3RS,4SR)-4-(3,4-Dichloro-phenyl)-1-(piperidine-4-carbonyl)-pyrrolidin-3-yl]-4-methoxy-N-methyl-3-trifluoromethyl-benzamide] | 0.2 |
| CN(C(=O)Cc1ccc(F)cc1)[C@H]1CN(C(=O)c2ccc(N3CCOCC3)cc2)C[C@@H]1c1ccc(Cl)c(Cl)c1 (racemic) [Example 134, N-[(3RS,4SR)-4-(3,4-Dichloro-phenyl)-1-(4-morpholin-4-yl-benzoyl)-pyrrolidin-3-yl]-2-(4-fluoro-phenyl)-N-methyl-acetamide] | 51.9 |
| CN(C(=O)Cc1ccc(F)cc1)[C@H]1CN(C(=O)c2ccc(N3CCOCC3)nc2)C[C@@H]1c1ccc(Cl)c(Cl)c1 (racemic) [Example 135, N-[(3RS,4SR)-4-(3,4-Dichloro-phenyl)-1-(6-morpholin-4-yl-pyridine-3-carbonyl)-pyrrolidin-3-yl]-2-(4-fluoro-phenyl)-N-methyl-acetamide] | 85.4 |
| COc1ccc(C(=O)N(C)[C@H]2CN(C(=O)C3CCN(CC4CC4)CC3)C[C@@H]2c2ccc(Cl)c(Cl)c2)cc1C(F)(F)F (racemic) [Example 138, N-[(3RS,4SR)-1-(1-Cyclopropylmethyl-piperidine-4-carbonyl)-4-(3,4-dichloro-phenyl)-pyrrolidin-3-yl]-4-methoxy-N-methyl-3-trifluoromethyl-benzamide] | 0.5 |
| COc1ccc(C(=O)N(C)[C@H]2CN(C(=O)C3CCN(CCC(F)(F)F)CC3)C[C@@H]2c2ccc(Cl)c(Cl)c2)cc1C(F)(F)F (racemic) [Example 139, N-{(3RS,4SR)-4-(3,4-Dichloro-phenyl)-1-[1-(3,3,3-trifluoro-propyl)-piperidine-4-carbonyl]-pyrrolidin-3-yl}-4-methoxy-N-methyl-3-trifluoromethyl-benzamide] | 0.6 |
| CCS(=O)(=O)N1CCC(C(=O)N2C[C@H](c3ccc(Cl)c(Cl)c3)[C@@H](N(C)C(=O)c3ccc(OC)c(C(F)(F)F)c3)C2)CC1 (racemic) [Example 140, N-[(3RS,4SR)-4-(3,4-Dichloro-phenyl)-1-(1-ethanesulfonyl-piperidine-4-carbonyl)-pyrrolidin-3-yl]-4-methoxy-N-methyl-3-trifluoromethyl-benzamide] | 0.7 |
| COc1ccc(C(=O)N(C)[C@H]2CN(C(=O)C3CCN(S(=O)(=O)C4CC4)CC3)C[C@@H]2c2ccc(Cl)c(Cl)c2)cc1C(F)(F)F (racemic) [Example 141, N-[(3RS,4SR)-1-(1-Cyclopropanesulfonyl-piperidine-4-carbonyl)-4-(3,4-dichloro-phenyl)-pyrrolidin-3-yl]-4-methoxy-N-methyl-3-trifluoromethyl-benzamide] | 0.7 |
| COc1ccc(C(=O)N(C)[C@H]2CN(C(=O)C3CCN(CCC#N)CC3)C[C@@H]2c2ccc(Cl)c(Cl)c2)cc1C(F)(F)F (racemic) [Example 142, N-[(3RS,4SR)-1-[1-(2-Cyano-ethyl)-piperidine-4-carbonyl]-4-(3,4-dichloro-phenyl)-pyrrolidin-3-yl]-4-methoxy-N-methyl-3-trifluoromethyl-benzamide] | 0.4 |
| CN(C(=O)Cc1ccc(F)cc1)C1CN(C(=O)C2CCN(CC3CC3)CC2)CC1c1ccc(Cl)c(Cl)c1 (racemic) [Example 143, N-[(3RS,4RS)-1-(1-Cyclopropylmethyl-piperidine-4-carbonyl)-4-(3,4-dichloro-phenyl)-pyrrolidin-3-yl]-2-(4-fluoro-phenyl)-N-methyl-acetamide] | 26.9 |
| COCCN1CCC(C(=O)N2C[C@H](c3ccc(Cl)c(Cl)c3)[C@@H](N(C)C(=O)c3ccc(OC)c(C(F)(F)F)c3)C2)CC1 (racemic) [Example 144, N-{(3RS,4SR)-4-(3,4-Dichloro-phenyl)-1-[1-(2-methoxy-ethyl)-piperidine-4-carbonyl]-pyrrolidin-3-yl}-4-methoxy-N-methyl-3-trifluoromethyl-benzamide] | 0.9 |

Results, then the molecule that gave them:

| Ki [nM] | SMILES |
| --- | --- |
| 1.1 | CCOC(=O)N1CCC(C(=O)N2C[C@H](c3ccc(Cl)c(Cl)c3)[C@@H](N(C)C(=O)c3ccc(OC)c(C(F)(F)F)c3)C2)CC1 (racemic) [Example 145, 4-{(3SR,4RS)-3-(3,4-Dichloro-phenyl)-4-[(4-methoxy-3-trifluoromethyl-benzoyl)-methyl-amino]-pyrrolidine-1-carbonyl}-piperidine-1-carboxylic acid ethyl ester] |
| 1.4 | COc1ccc(C(=O)N(C)[C@H]2CN(C(=O)c3ccc(-c4nc(C)no4)cc3)C[C@@H]2c2ccc(Cl)c(Cl)c2)cc1C(F)(F)F (racemic) [Example 147, N-{(3RS,4SR)-4-(3,4-Dichloro-phenyl)-1-[4-(3-methyl-[1,2,4]oxadiazol-5-yl)-benzoyl]-pyrrolidin-3-yl}-4-methoxy-N-methyl-3-trifluoromethyl-benzamide] |
| 0.5 | C=C(F)CN1CCC(C(=O)N2C[C@H](c3ccc(Cl)c(Cl)c3)[C@@H](N(C)C(=O)c3ccc(OC)c(C(F)(F)F)c3)C2)CC1 (racemic) [Example 148, N-{(3RS,4SR)-4-(3,4-Dichloro-phenyl)-1-[1-(2-fluoro-allyl)-piperidine-4-carbonyl]-pyrrolidin-3-yl}-4-methoxy-N-methyl-3-trifluoromethyl-benzamide] |
| 19.8 | CN(C(=O)Cc1ccc(F)c(F)c1)[C@H]1CN(C(=O)C2CCN(CC3CC3)CC2)C[C@@H]1c1ccc(Cl)c(Cl)c1 (racemic) [Example 150, N-[(3RS,4SR)-1-(1-Cyclopropylmethyl-piperidine-4-carbonyl)-4-(3,4-dichloro-phenyl)-pyrrolidin-3-yl]-2-(3,4-difluoro-phenyl)-N-methyl-acetamide] |
| 6.7 | CN(C(=O)CC1CCCC1)[C@H]1CN(C(=O)C2CCN(CC3CC3)CC2)C[C@@H]1c1ccc(Cl)c(Cl)c1 (racemic) [Example 151, 2-Cyclopentyl-N-[(3RS,4SR)-1-(1-cyclopropylmethyl-piperidine-4-carbonyl)-4-(3,4-dichloro-phenyl)-pyrrolidin-3-yl]-N-methyl-acetamide] |
| 23 | CN(C(=O)Cc1cccc(F)c1F)[C@H]1CN(C(=O)C2CCN(CC3CC3)CC2)C[C@@H]1c1ccc(Cl)c(Cl)c1 (racemic) [Example 152, N-[(3RS,4SR)-1-(1-Cyclopropylmethyl-piperidine-4-carbonyl)-4-(3,4-dichloro-phenyl)-pyrrolidin-3-yl]-2-(2,3-difluoro-phenyl)-N-methyl-acetamide] |
| 25.4 | CN(C(=O)Cc1ccc(Cl)cc1)[C@H]1CN(C(=O)C2CCN(CC3CC3)CC2)C[C@@H]1c1ccc(Cl)c(Cl)c1 (racemic) [Example 158, 2-(4-Chloro-phenyl)-N-[(3RS,4SR)-1-(1-cyclopropylmethyl-piperidine-4-carbonyl)-4-(3,4-dichloro-phenyl)-pyrrolidin-3-yl]-N-methyl-acetamide] |
| 43.3 | CC(C(=O)N(C)[C@H]1CN(C(=O)C2CCN(CC3CC3)CC2)C[C@@H]1c1ccc(Cl)c(Cl)c1)c1ccc(F)cc1 (mixture of isomers) [Example 159, N-[(3RS,4SR)-1-(1-Cyclopropylmethyl-piperidine-4-carbonyl)-4-(3,4-dichloro-phenyl)-pyrrolidin-3-yl]-2-(4-fluoro-phenyl)-N-methyl-propionamide] |
